Measured values taken from US20150331992A1, “CANCER PROGNOSIS AND THERAPY BASED ON SYNTHEIC LETHALITY” (Ramot at Tel-Aviv University Ltd., priority 2014, published 2015).

Test system: VHL-deficient and VHL-restored renal carcinoma cells (RCC4)
Assay: Growth inhibition of VHL-deficient vs VHL-restored renal cells by drugs at mid-effective concentration
Assay type: cell-based
Conditions: mid-effective concentration of each drug; both cell lines in triplicates; FIG. 5
Protocol: A range of concentrations for each drug were tested to identify a suitable working concentration in which there was an effect on cells growth, but not complete death (which is more likely to be due to non-specific toxicity).

Structure (SMILES) | Sensitivity (percentage of growth inhibition) of VHL-deficient cells compared to isogenic cells in which pVHL was restored
CN(C)CCC=C1c2ccccc2CCc2ccccc21 [Amitriptyline] | significantly more sensitive
Nc1ccncc1 [Dalfampridine] | significantly more sensitive
COc1ccc(CCN(C)CCCC(C#N)(c2ccc(OC)c(OC)c2)C(C)C)cc1OC (centres unmarked) [Verapamil] | significantly more sensitive
CN(C)CCCN1c2ccccc2CCc2ccccc21 [Imipramine] | significantly more sensitive
C[N+]1(CCCCC[N+]2(C)CCCC2)CCCC1 [Pentolinium] | significantly more sensitive
